Data taken from patent EP0939084A1, “An estrogen binding proteinaceous substance, its possible role in estrogen action, and potential use” (Rao, Ramanath B., priority 1998, dated 1999).
Entries after “also recorded” stand apart in the source; their conditions may differ. Read-outs that look alike come from different tables or passages of the source. Blank lines part the entries; values can stand above or below the molecule they belong to.

Legend:
[1] = test system: estrogen binding protein (EBP), 84 kD heterodimer, mouse fetal liver; assay: Competition for / modulation of ^3H-estradiol-17β binding to EBP (charcoal assay); details: for inhibition of / influence on ^3H-estradiol-17β binding to EBP: competitor concentration not stated
Method: (§1) In brief, the procedure is as follows. […] Simultaneously tubes in duplicate without any added protein sample were set up as control. At the end of the incubation the tubes were put in an ice bath for 15 minutes to cool to the ice bath temperature. 0.5 ml of charcoal solution (0.05% heat activated charcoal plus 0.05% bovine serum albumin in tris buffer) was added, mixed and incubated further for 10 minutes. The tubes were then centrifuged at 2500 rpm for 15 minutes at 4°C to pellet the charcoal. 0.5 ml from each tube was carefully withdrawn without disturbing the charcoal pellet at the bottom of the tube and the radioactivity was measured following mixing with the scintillation cocktail. The net protein bound radioactivity was calculated after deducting the background counts based on the tubes without any added protein.

[2] = test system: estrogen binding protein (EBP), 84 kD heterodimer, mouse fetal liver; assay: Sucrose density gradient centrifugation of EBP incubated with ^3H-estradiol-17β and competitor; details: ^3H-estradiol-17β 0.85 pmol + dimethylbenzanthracene 0.42 nmol or 1.2 nmol; Fig. 17
Description: In the light of the above information attempts were made to analyse whether some of the known pollutants and carcinogens (1-OH, 3-OH, 8-OH, 10-OH benzo(a)pyrene, […]) compete in vitro with ^3H-estradiol-17β for binding site on EBP. […] Since benzo(a)pyrene is a known carcinogen it will be important to determine whether there is a structural relationship between estradiol-17β and the various hydroxy benzo(a)pyrenes. […] It is well known that DMBA is a potent carcinogen and as such it has been extensively used to induce estrogen dependent mammary and endometrial cancers in animals. […] However, this agent is still utilized to coat common plastics of daily use. […] Establishment of a correlationship between the in vitro and in vivo potency of such compounds will provide a rapid in vitro screening assay. Most importantly, such information for the first time will delineate a definitive role for an estrogen binder such as EBP in carcinogenesis and may also enable to explain why compounds such as DMBA induce tumors in estrogen responsive tissues as well as why the tumors are estrogen dependent.

[3] = test system: estrogen binding protein (EBP), 84 kD heterodimer, mouse fetal liver
Method: as §1

[4] = test system: type II ER; details: literature (40-41,43); cited from earlier work

Structure (SMILES): CC/C(=C(\c1ccccc1)c1ccc(OCCN(C)C)cc1)c1ccccc1 [Tamoxifen]
inhibition of / influence on ^3H-estradiol-17β binding to EBP [1]: no significant inhibitory effect

Structure (SMILES): Cc1c2ccccc2c(C)c2c1ccc1ccccc12 [DMBA, 7,12-dimethylbenzanthracene]
inhibition of ^3H-estradiol-17β binding (sucrose gradient centrifugation) [2]: inhibition

Structure (SMILES): CC/C(=C(/CC)c1ccc(O)cc1)c1ccc(O)cc1 [diethylstilbestrol]
binding of the radiolabelled compound to EBP [3]: does not bind; also recorded: most estrogens no Des binding no competition (prog, androgen, corticoids)

Structure (SMILES): CC/C(=C(\c1ccc(O)cc1)c1ccc(OCCN(C)C)cc1)c1ccccc1 [4-hydroxytamoxifen]
inhibition of / influence on ^3H-estradiol-17β binding to EBP [1]: no significant inhibitory effect

inhibition of ^3H-estradiol-17β binding to EBP ([1]; competitor at 300-fold the concentration of the radiolabelled estrogen): no inhibitory effect
Structure (SMILES): C[C@]12CC[C@@H]3c4ccc(O)cc4CC[C@H]3[C@@H]1CC[C@H]2O [estradiol-17α]

Structure (SMILES): O[C@H](CS)[C@H](O)CS (racemic) [DTT, dithiotreitol]
sensitivity of type II ER estrogen binding to DTT [4]: highly sensitive

influence on ^3H-estradiol-17β binding to EBP ([1]; both at low and high molarity): did not significantly influence
inhibition of / influence on ^3H-estradiol-17β binding to EBP [1]: did not influence
binding of the radiolabelled compound to EBP ([3]; radiolabelled ligand): no binding
Structure (SMILES): NCCc1ccc(O)c(O)c1 [dopamine]

relative binding activities of the competing estrogens ([1]; calculated at the 50% reduction level, compared to non-labelled estradiol-17β competing potency): 37%
inhibition of / influence on ^3H-estradiol-17β binding to EBP [1]: significantly inhibited
Structure (SMILES): C[C@]12CC[C@@H]3c4ccc(O)cc4CC[C@H]3[C@@H]1C[C@@H](O)[C@@H]2O [estriol]
